According to patent US9896443B2, “Perforin inhibiting benzenesulfonamide compounds, preparation and uses thereof” (Peter MacCallum Cancer Institute, priority 2012, dated 2018):
Where two headings read alike, the source gives them in different places. Blank lines part the entries; values can stand above or below the molecule they belong to.

Columns and labels:
recombinant perforin = recombinant perforin (UniProt P10820); format: cell-based
Procedure: Inhibition of perforin-mediated lysis of Jurkat cells.
The ability of the compounds to inhibit the lysis of nucleated (Jurkat T lymphoma) cells in the presence of 0.1% BSA, as measured by release of ^51Cr was measured. Jurkat target cells were labelled by incubation in medium with 100 μCi ^51Cr for one hour. The cells were then washed three times to remove unincorporated isotope and re-suspended at 1×10^5 cells per mL in RPMI buffer supplemented with 0.1% BSA. […] Each data point was performed in triplicate and an IC50 was calculated from the range of concentrations described to above.

[1] = test system: KHYG-1 NK cell-mediated lysis of K562 cells; test: Inhibition of KHYG-1 NK cell-mediated lysis of K562 cells (51Cr release); format: cell-based; conditions: 4 h, K562 target cells, Effector:Target 2:1, 4 hours at 37° C.
Procedure: Inhibition of KHYG-1 NK Cell-Mediated Lysis of K562 Cells.
Test compounds were added to KHYG-1 cells at various concentrations up to 20 µM and incubated at RT for 20 minutes. 1×10^6 K562 target cells were labelled with 75 μCi ^51Cr in 200 μl RPMI for 90 mins at 37° C., cells were washed as described above and resuspended in 5 ml RPMI+0.1% BSA. 50 μl of ^51Cr labelled K562 leukemia target cells were added to each well of the KHYG-1 plate (Effector:Target 2:1) and incubated at 37° C. for 4 hours. ^51Cr release was assayed using a Skatron Harvesting Press and radioactivity estimated on a Wallac Wizard 1470 Automatic Gamma counter (Turku, Finland). The percentage of specific cytotoxicity was calculated by the formula: […]

[2] = lysis of Jurkat T lymphoma cells by recombinant perforin, 0.1% BSA, 30 min pre-incubation, 4 hours at 37° C.; read-out: Jurkat IC50

Sequence of recombinant perforin (P10820 whole entry): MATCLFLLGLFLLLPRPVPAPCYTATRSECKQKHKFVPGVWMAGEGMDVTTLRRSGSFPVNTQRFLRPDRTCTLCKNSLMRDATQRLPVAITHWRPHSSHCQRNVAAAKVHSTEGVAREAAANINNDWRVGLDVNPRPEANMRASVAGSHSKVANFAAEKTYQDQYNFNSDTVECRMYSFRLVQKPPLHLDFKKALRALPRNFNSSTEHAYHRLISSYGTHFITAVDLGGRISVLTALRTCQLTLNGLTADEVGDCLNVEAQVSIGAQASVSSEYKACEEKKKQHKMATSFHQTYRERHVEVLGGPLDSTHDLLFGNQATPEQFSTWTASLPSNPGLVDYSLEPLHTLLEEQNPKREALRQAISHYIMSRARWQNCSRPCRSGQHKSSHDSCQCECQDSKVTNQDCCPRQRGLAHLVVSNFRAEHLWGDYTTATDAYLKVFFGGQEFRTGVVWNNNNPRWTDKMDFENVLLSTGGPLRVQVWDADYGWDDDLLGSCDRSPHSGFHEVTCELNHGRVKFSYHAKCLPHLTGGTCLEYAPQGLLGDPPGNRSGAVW

SMILES: Cc1cccc(S(=O)(=O)Nc2cncc(-c3ccc(-c4ccc5c(c4)CN(C)C5=O)s3)c2)c1 [Compound 2, 3-Methyl-N-(5-(5-(2-methyl-1-oxoisoindolin-5-yl)thiophen-2-yl)pyridin-3-yl)benzenesulfonamide]
IC50 (recombinant perforin; read-out: Jurkat IC50; lysis of Jurkat T lymphoma cells by recombinant perforin, 0.1% BSA, 30 min pre-incubation, 4 hours at 37° C.): 7.33 µM | inhibition at 20 µM [1]: 27% | melting point: 281 to 284 °C

SMILES: CN1Cc2cc(-c3ccc(-c4cncc(NS(=O)(=O)c5ccccc5F)c4)s3)ccc2C1=O [Compound 4, 2-Fluoro-N-(5-(5-(2-methyl-1-oxoisoindolin-5-yl)thiophen-2-yl)pyridin-3-yl)benzene-sulfonamide]
IC50 (recombinant perforin; [2]): 2.03 µM | inhibition at 20 µM [1]: 40% | melting point: 289 to 292 °C

SMILES: CN1Cc2cc(-c3ccc(-c4cncc(NS(=O)(=O)c5ccccc5Cl)c4)s3)ccc2C1=O [Compound 9, 2-Chloro-N-(5-(5-(2-methyl-1-oxoisoindolin-5-yl)thiophen-2-yl)pyridin-3-yl)benzenesulfonamide]
IC50 (recombinant perforin; [2]): 4.01 µM | inhibition at 20 µM [1]: 47% | melting point: 299 to 303 °C

SMILES: CN1Cc2cc(-c3ccc(-c4cncc(NS(=O)(=O)c5cccc(Cl)c5)c4)s3)ccc2C1=O [Compound 10, 3-Chloro-N-(5-(5-(2-methyl-1-oxoisoindolin-5-yl)thiophen-2-yl)pyridin-3-yl)benzenesulfonamide]
IC50 (recombinant perforin; [2]): 2.42 µM | inhibition at 20 µM [1]: 31% | melting point: 291 to 295 °C

SMILES: CN1Cc2cc(-c3ccc(-c4cncc(NS(=O)(=O)c5ccc(Cl)c(Cl)c5)c4)s3)ccc2C1=O [Compound 12, 3,4-Dichloro-N-(5-(5-(2-methyl-1-oxoisoindolin-5-yl)thiophen-2-yl)pyridin-3-yl)benzenesulfonamide]
IC50 (recombinant perforin; [2]): 1.32 µM | inhibition at 20 µM [1]: 45% | melting point: 256 to 259 °C

SMILES: CN1Cc2cc(-c3ccc(-c4cncc(NS(=O)(=O)c5ccc(Cl)cc5Cl)c4)s3)ccc2C1=O [Compound 13, 2,4-Dichloro-N-(5-(5-(2-methyl-1-oxoisoindolin-5-yl)thiophen-2-yl)pyridin-3-yl)benzene-sulfonamide]
IC50 (recombinant perforin; [2]): 15 µM | melting point: 282 to 285 °C

SMILES: CN1Cc2cc(-c3ccc(-c4cncc(NS(=O)(=O)c5ccccc5Br)c4)s3)ccc2C1=O [Compound 15, 2-Bromo-N-(5-(5-(2-methyl-1-oxoisoindolin-5-yl)thiophen-2-yl)pyridin-3-yl)benzenesulfonamide]
IC50 (recombinant perforin; [2]): 2.66 µM | inhibition at 20 µM [1]: 42% | melting point: 289 to 293 °C

SMILES: CN1Cc2cc(-c3ccc(-c4cncc(NS(=O)(=O)c5cccc(Br)c5)c4)s3)ccc2C1=O [Compound 16, 3-Bromo-N-(5-(5-(2-methyl-1-oxoisoindolin-5-yl)thiophen-2-yl)pyridin-3-yl)benzenesulfonamide]
IC50 (recombinant perforin; [2]): 2.11 µM | inhibition at 20 µM [1]: 20% | melting point: 303 to 307 °C

SMILES: CN1Cc2cc(-c3ccc(-c4cncc(NS(=O)(=O)c5ccc(Br)cc5)c4)s3)ccc2C1=O [Compound 17, 4-Bromo-N-(5-(5-(2-methyl-1-oxoisoindolin-5-yl)thiophen-2-yl)pyridin-3-yl)benzenesulfonamide]
IC50 (recombinant perforin; [2]): 8.77 µM | inhibition at 20 µM [1]: 6% | melting point: 276 to 279 °C

SMILES: COc1ccccc1S(=O)(=O)Nc1cncc(-c2ccc(-c3ccc4c(c3)CN(C)C4=O)s2)c1 [Compound 18, 2-Methoxy-N-(5-(5-(2-methyl-1-oxoisoindolin-5-yl)thiophen-2-yl)pyridin-3-yl)benzenesulfonamide]
IC50 (recombinant perforin; [2]): 14.8 µM | melting point: 273 to 276 °C

SMILES: COc1cccc(S(=O)(=O)Nc2cncc(-c3ccc(-c4ccc5c(c4)CN(C)C5=O)s3)c2)c1 [Compound 19, 3-Methoxy-N-(5-(5-(2-methyl-1-oxoisoindolin-5-yl)thiophen-2-yl)pyridin-3-yl)benzenesulfonamide]
IC50 (recombinant perforin; [2]): 2.56 µM | inhibition at 20 µM [1]: 17% | melting point: 278 to 280 °C

SMILES: COc1ccc(S(=O)(=O)Nc2cncc(-c3ccc(-c4ccc5c(c4)CN(C)C5=O)s3)c2)cc1 [Compound 20, 4-Methoxy-N-(5-(5-(2-methyl-1-oxoisoindolin-5-yl)thiophen-2-yl)pyridin-3-yl)benzenesulfonamide]
IC50 (recombinant perforin; [2]): 6.27 µM | inhibition at 20 µM [1]: 24% | melting point: 254 to 258 °C

SMILES: CN1Cc2cc(-c3ccc(-c4cncc(NS(=O)(=O)c5ccccc5OC(F)(F)F)c4)s3)ccc2C1=O [Compound 22, N-(5-(5-(2-Methyl-1-oxoisoindolin-5-yl)thiophen-2-yl)pyridin-3-yl)-2-(trifluoromethoxy)benzenesulfonamide]
IC50 (recombinant perforin; [2]): 17.7 µM | melting point: 251 to 254 °C

SMILES: CN1Cc2cc(-c3ccc(-c4cncc(NS(=O)(=O)c5cccc(OC(F)(F)F)c5)c4)s3)ccc2C1=O [Compound 23, N-(5-(5-(2-Methyl-1-oxoisoindolin-5-yl)thiophen-2-yl)pyridin-3-yl)-3-(trifluoromethoxy)benzenesulfonamide]
IC50 (recombinant perforin; [2]): 1.42 µM | inhibition at 20 µM [1]: 38% | melting point: 230 to 232 °C

SMILES: Cc1ccc(S(=O)(=O)Nc2cncc(-c3ccc(-c4ccc5c(c4)CN(C)C5=O)s3)c2)cc1Cl [Compound 27, 3-Chloro-4-methyl-N-(5-(5-(2-methyl-1-oxoisoindolin-5-yl)thiophen-2-yl)pyridin-3-yl)benzenesulfonamide]
inhibition at 20 µM [1]: 52% | melting point: 277 to 279 °C

SMILES: CN1Cc2cc(-c3ccc(-c4cncc(NS(=O)(=O)c5ccccn5)c4)s3)ccc2C1=O [Compound 31, N-(5-(5-(2-Methyl-1-oxoisoindolin-5-yl)thiophen-2-yl)pyridin-3-yl)pyridine-2-sulfonamide]
IC50 (recombinant perforin; [2]): 0.74 µM | inhibition at 20 µM [1]: 19% | melting point: 272 to 275 °C

SMILES: CN1Cc2cc(-c3ccc(-c4cncc(NS(=O)(=O)c5cccnc5)c4)s3)ccc2C1=O [Compound 32, N-(5-(5-(2-Methyl-1-oxoisoindolin-5-yl)thiophen-2-yl)pyridin-3-yl)pyridine-3-sulfonamide]
IC50 (recombinant perforin; [2]): 15.1 µM | melting point: 283 to 286 °C

SMILES: CN1Cc2cc(-c3ccc(-c4cncc(NS(=O)(=O)c5cccs5)c4)s3)ccc2C1=O [Compound 34, N-(5-(5-(2-Methyl-1-oxoisoindolin-5-yl)thiophen-2-yl)pyridin-3-yl)thiophene-2-sulfonamide]
IC50 (recombinant perforin; [2]): 1.07 µM | inhibition at 20 µM [1]: 45% | melting point: 300 to 304 °C

SMILES: COc1ncc(-c2ccc(-c3ccc4c(c3)CN(C)C4=O)s2)cc1NS(=O)(=O)c1ccc(F)cc1F [Compound 37, 2,4-Difluoro-N-(2-methoxy-5-(5-(2-methyl-1-oxoisoindolin-5-yl)thiophen-2-yl)pyridin-3-yl)benzenesulphonamide]
IC50 (recombinant perforin; [2]): 3.56 µM | inhibition at 20 µM [1]: 36% | melting point: 224 to 227 °C

SMILES: COc1ncc(-c2ccc(-c3ccc4c(c3)CNC4=O)s2)cc1NS(=O)(=O)c1ccc(F)cc1F [Compound 38, 2,4-Difluoro-N-(2-methoxy-5-(5-(1-oxoisoindolin-5-yl)thiophen-2-yl)pyridin-3-yl)benzene sulphonamide]
IC50 (recombinant perforin; [2]): 5.41 µM | melting point: 266 to 270 °C

SMILES: CN1Cc2cc(-c3ccc(-c4ccnc(NS(=O)(=O)c5ccc(F)cc5F)c4)s3)ccc2C1=O [Compound 41, 2,4-Difluoro-N-(4-(5-(2-methyl-1-oxoisoindolin-5-yl)thiophen-2-yl)pyridin-2-yl)benzenesulfonamide]
IC50 (recombinant perforin; [2]): 4.7 µM | inhibition at 20 µM [1]: 14% | melting point: 235 to 239 °C

SMILES: CN1Cc2cc(-c3ccc(-c4cccc(NS(=O)(=O)c5ccc(F)cc5F)c4)s3)ccc2C1=O [Compound 43, 2,4-Difluoro-N-(3-(5-(2-methyl-1-oxoisoindolin-5-yl)thiophen-2-yl)phenyl)benzene sulphonamide]
IC50 (recombinant perforin; [2]): 5.74 µM | inhibition at 20 µM [1]: 18% | melting point: 260 to 262 °C

melting point: 252 °C (dec.)
SMILES: O=C1NCCc2ccc(-c3ccc(-c4cncc(NS(=O)(=O)c5ccc(F)cc5F)c4)s3)cc21 [Compound 54, 2,4-Difluoro-N-(5-(5-(1-oxo-1,2,3,4-tetrahydroisoquinolin-7-yl)thiophen-2-yl)pyridin-3-yl)benzenesulfonamide]

melting point: 280 to 283 °C
SMILES: CN1CCc2ccc(-c3ccc(-c4cncc(NS(=O)(=O)c5ccc(F)cc5F)c4)s3)cc2C1=O [Compound 55, 2,4-Difluoro-N-(5-(5-(2-methyl-1-oxo-1,2,3,4-tetrahydroisoquinolin-7-yl)thiophen-2-yl)pyridin-3-yl)benzenesulfonamide]
inhibition at 20 µM [1]: 0%

melting point: 239 to 241 °C
SMILES: O=C1c2ccc(-c3ccc(-c4cncc(NS(=O)(=O)c5ccc(F)cc5F)c4)s3)cc2CN1CCCO [Compound 57, 2,4-Difluoro-N-(5-(5-(2-(3-hydroxypropyl)-1-oxoisoindolin-5-yl)thiophen-2-yl)pyridin-3-yl)benzenesulfonamide]

melting point: 268 to 271 °C
SMILES: Cc1ccc(NS(=O)(=O)c2ccc(F)cc2F)cc1-c1ccc(-c2ccc3c(c2)CN(C)C3=O)s1 [Compound 61, 2,4-Difluoro-N-(4-methyl-3-(5-(2-methyl-1-oxoisoindolin-5-yl)thiophen-2-yl)phenyl)benzenesulfonamide]
